Test results taken from US8961624B2, “Ortho-phenylphenol compounds as markers for liquid hydrocarbons and other fuels and oils” (Dow Global Technologies LLC, priority 2011, dated 2015).

Key:
[1] = Solubility in organic solvents at −10° C.; format: physicochemical; conditions: for soluble at (concentration) in AROMATIC 200: AROMATIC 200, −10° C.; for soluble at (concentration) in DMAc / soluble at (concentration) in NMP / soluble at (concentration) in dipropylene glycol dimethyl ether / soluble at (concentration) in tetralin: −10° C.
[2] = Solubility of Ex. 13 Product (cold storage of 10% w/w solution in AROMATIC 200); format: physicochemical; conditions: 10% w/w solution in AROMATIC 200, −11° C. freezer for 2 weeks
Experimental: Solubility of Ex. 13 Product: A solution (10% w/w) in AROMATIC 200 was prepared at room temperature. The clear solution was placed in a −11° C. freezer for 2 weeks.

Compound | soluble at (concentration) in AROMATIC 200 [1] [%] | soluble at (concentration) in DMAc [1] [%] | soluble at (concentration) in NMP [1] [%] | soluble at (concentration) in dipropylene glycol dimethyl ether [1] [%] | soluble at (concentration) in tetralin [1] [%] | melting point [°C] | crystallization from solution on cold storage [2]
c1ccc(-c2ccccc2OCc2ccccc2COc2ccccc2-c2ccccc2)cc1 [1,2-bis(([1,1′-biphenyl]-2-yloxy)-methyl)benzene] | 10 | 10 | 10 | 10 | 10 |  | 
c1ccc(-c2ccccc2OCc2ccc(COc3ccccc3-c3ccccc3)cc2)cc1 [1,4-bis(([1,1′-biphenyl]-2-yloxy)-methyl)benzene] |  |  | 10 |  |  | 140 to 142 | 
c1ccc(-c2ccccc2OCCCCOc2ccccc2-c2ccccc2)cc1 [1,4-bis([1,1′-biphenyl]-2-yloxy)butane] |  | 10 | 10 | 10 |  | 62 to 67 | 
CCCCCCCCCCCCOc1ccccc1-c1ccccc1 [2-(dodecyloxy)-1,1′-biphenyl] | 10 |  |  | 10 | 10 | 27 to 29 | 
CCCCCCCCCCCCCCCCCCOc1ccccc1-c1ccccc1 [2-(octadecyloxy)-1,1′-biphenyl] |  |  |  |  | < 5 | 42 to 45 | 
CCCCCCCCCCCCCCOc1ccccc1-c1ccccc1 [2-(tetradecyloxy)-1,1′-biphenyl] |  |  |  |  | 7.5 |  | 
c1ccc(-c2ccccc2OCc2ccc(-c3ccc(COc4ccccc4-c4ccccc4)cc3)cc2)cc1 [4,4′-bis(([1,1′-biphenyl]-2-yloxy)methyl)-1,1′-biphenyl] |  |  | 10 |  |  | 149 to 151 | 
O=C(Oc1ccccc1-c1ccccc1)c1ccccc1 [Ex. 13 Product, [1,1′-biphenyl]-2-yl benzoate] |  |  |  |  |  |  | No visibly detectable crystallization occurred
